Data reported in US20250051281A1, “CRYSTALLINE FORM OF AROMATIC RING DERIVATIVE, AND PREPARATION METHOD THEREFOR AND APPLICATION THEREOF” (SHANGHAI JEMINCARE PHARMACEUTICAL CO., LTD, priority 2021, published 2025).

Assays:
Assay type in all cases: physicochemical
[1] = Changes in shape of crystal forms under high temperature, high humidity and light exposure (Table 26)
From the text: (§1) Consequently, the inventors selected four crystal forms with good reproducibility and ease of purification: crystal forms A, B, G, and Q. These crystal forms were subjected to stability tests under identical conditions of high temperature, high humidity, and light exposure.

[2] = Stability test of crystal forms under high temperature, high humidity and light exposure (HPLC purity); conditions: for Purity after 30 days at a temperature of 25° C. with a relative humidity of 90% ± 5%: 90% ± 5% RH; for Purity after 30 days at a temperature of 25° C. with a relative humidity of 90% ± 5% / Purity after 30 days at high temperature (60° C.) / Purity after 30 days at a light intensity of 4500 Lx ± 500 Lx / Initial purity: HPLC purity; for Initial purity: before stress conditions
From the text: (§2) The high-performance liquid chromatography (HPLC) analysis method used in the present disclosure is as follows: an Agilent 1260 was used to test the purity and stability of the sample under the conditions shown in Table 18.
as §1

[3] = Purity of crystal forms at storage conditions of 25° C. and 40° C. (Table 27)
Description: as §2
The purity of crystal forms A, B, G, and Q, under identical mass and packaging conditions, was investigated at storage conditions of 25° C. and 40° C., as shown in Table 27.

[4] = Stability verification of crystal form G in different solvents (XRPD form after slurry or vapour exposure); conditions: room temperature, dried under vacuum at 50° C. for 2 hours
Description: The X-ray powder diffraction analysis method used in the present disclosure is as follows: X-ray powder diffraction testing was conducted at room temperature using a Bruker D2 PHASER diffractometer (300 W low-power X-ray emitter). During the test, a silicon wafer was used to sustain the sample powder, and an X-ray Cu (Kα) tube was used, with a Kα2/Kα1 intensity ratio of 0.50 (1.54439 Å/1.5406 Å). The instrument was set to 30 kV and 10 mA, with a step size of 0.02° (2θ), a scanning time of 0.15 s per step, for a total of 1837 steps.
Method 1: The crystal form G (50 mg) was added to 0.5 mL of the corresponding solvent (the solvent may be EtOH, H2O, or a mixture of EtOH/H2O in the ratios of 970/30, 927/73, 855/145, 704/296, v/v).
Method 2: The crystal form G (15 mg) was placed in a 4 mL glass vial, which was then placed inside a 20 mL glass vial containing 3 mL of a volatile solvent (which may be MeOH or EtOH). The 20 mL glass vial was tightly capped and left to stand at room temperature for approximately one week.

[5] = High Temperature (60° C.), 5 Days
[6] = High Temperature (60° C.), 10 Days
[7] = High Temperature (60° C.), 30 Days
[8] = Light intensity of 4500 Lx ± 500 Lx, 5 Days
[9] = Light intensity of 4500 Lx ± 500 Lx, 10 Days
[10] = Light intensity of 4500 Lx ± 500 Lx, 30 Days
[11] = Temperature of 25° C., relative humidity of 90% ± 5%, 5 Days
[12] = Temperature of 25° C., relative humidity of 90% ± 5%, 10 Days
[13] = Temperature of 25° C., relative humidity of 90% ± 5%, 30 Days

SMILES	Shape (appearance) [1, 5]	Shape (appearance) [1, 6]	Shape (appearance) [1, 7]	Shape (appearance) ([1]; Initial State)	Shape (appearance) [1, 8]	Shape (appearance) [1, 9]	Shape (appearance) [1, 10]	Shape (appearance) [1, 11]	Shape (appearance) [1, 12]	Shape (appearance) [1, 13]	Purity after 30 days at a temperature of 25° C. with a relative humidity of 90% ± 5% [2]	Purity after 30 days at high temperature (60° C.) [2]	Purity after 30 days at a light intensity of 4500 Lx ± 500 Lx [2]	Initial purity [2]	Purity on storage ([3]; 25° C., 0 Days)	Purity on storage ([3]; 25° C., 15 Days)	Purity on storage ([3]; 25° C., 30 Days)	Purity on storage ([3]; 25° C., 45 Days)	Purity on storage ([3]; 25° C., 60 Days)	Purity on storage ([3]; 25° C., 90 Days)	further results
Cc1c(CCC(=O)O)[nH]c2ccc(OCc3ccc(C4CCCC4)c(C(F)(F)F)c3)cc12 [Crystal form A]	Off-white	Pale yellow	Yellow solid	Off-white	Off-white	Pale yellow	Yellow solid	Off-white	Off-white	Off-white	98.49%	94.57%	94.45%	99.28%	99.03%	98.91%	98.93%	98.87%	98.85%	98.73%	Purity on storage ([3]; 40° C., 0 Days): 99.03%; Purity on storage ([3]; 40° C., 15 Days): 98.73%; Purity on storage ([3]; 40° C., 30 Days): 98.42%; Purity on storage ([3]; 40° C., 45 Days): 98.30%; Purity on storage ([3]; 40° C., 60 Days): 98.15%; Purity on storage ([3]; 40° C., 90 Days): 97.69%
Cc1c(CCC(=O)O)[nH]c2ccc(OCc3ccc(C4CCCC4)c(C(F)(F)F)c3)cc12 [Crystal form B]	Off-white	Off-white	Off-white	Off-white	Off-white	Pale yellow	Yellow solid	Off-white	Off-white	Off-white	98.50%	97.21%	94.55%	99.44%	99.14%	99.05%	99.00%	98.93%	98.94%	98.86%	Purity on storage ([3]; 40° C., 0 Days): 99.14%; Purity on storage ([3]; 40° C., 15 Days): 98.88%; Purity on storage ([3]; 40° C., 30 Days): 98.73%; Purity on storage ([3]; 40° C., 45 Days): 98.68%; Purity on storage ([3]; 40° C., 60 Days): 98.66%; Purity on storage ([3]; 40° C., 90 Days): 98.40%
Cc1c(CCC(=O)[O][Ca][O]C(=O)CCc2[nH]c3ccc(OCc4ccc(C5CCCC5)c(C(F)(F)F)c4)cc3c2C)[nH]c2ccc(OCc3ccc(C4CCCC4)c(C(F)(F)F)c3)cc12 [Crystal form G]	Off-white solid	Off-white solid	Off-white solid	Off-white solid	Off-white solid	Pale yellow	Yellow solid	Off-white solid	Off-white solid	Off-white solid	98.78%	99.12%	96.02%	99.60%	99.48%	99.42%	99.43%	99.43%	99.41%	99.36%	Crystal form obtained after stirring in solvent ([4]; EtOH, H2O or EtOH/H2O mixtures, 4 days): obtain the crystal form G; Crystal form obtained after exposure to volatile solvent vapour ([4]; MeOH or EtOH vapour, approximately one week): obtain the crystal form G; Stability under high temperature, high humidity, and light exposure conditions compared to the other crystal forms ([2]; summary of Tables 25 and 26, versus crystal forms A, B, Q): higher stability; Purity on storage ([3]; 40° C., 0 Days): 99.48%; Purity on storage ([3]; 40° C., 15 Days): 99.28%; Purity on storage ([3]; 40° C., 30 Days): 99.27%; Purity on storage ([3]; 40° C., 45 Days): 99.24%; Purity on storage ([3]; 40° C., 60 Days): 99.16%; Purity on storage ([3]; 40° C., 90 Days): 99.01%; Stability when stored at 25° C. and 40° C. for 90 days ([3]; summary of Table 27, 90 days): higher stability
